Like-named read-outs stand apart in the source and are kept apart here. Starred links: 1 amine or outer side, 2 acyl side, 3 side chain; linkers in the order of their positions; H or OH if unused. Positions of bridges follow the written chain, without caps; N, C: chain ends. Non-standard residues stand in square brackets, D forms with d. Residues, ends and D or L forms follow the SMILES beside them. Groups on a side chain read outwards from the residue. *: point of attachment. Trp(1-CH2COOH) = N[C@@H](Cc1cn(CC(=O)O)c2ccccc12)C(=O)O; NH(benzothiophen-5-yl) = c1cc2cc(N*)ccc2s1; X23 = COc1cc(NC(=S)*)ccc1-n1cnc(Cl)c1; X8 = NC(=O)c1c[nH]c2c(NC(=S)*)cccc12; X88 = Cc1cc([N+](=O)[O-])ccc1NC(=S)*; Hyp = O=C(O)[C@@H]1C[C@@H](O)CN1; X70 = Cc1coc2c(F)cc(NC(=S)*)cc12; X27 = Cc1cc([N+](=O)[O-])ccc1N*; X44 = FC(F)(F)c1ccc(NC(=S)*)cc1; X80 = S=C(Nc1ccc(-n2cccn2)cc1)*; pNA = O=[N+]([O-])c1ccc(N*)cc1; X42 = S=C(Nc1ccc2nccnc2c1Br)*; NMeNle = CCCC[C@H](NC)C(=O)O; X7 = S=C(Nc1ccc2cc[nH]c2c1)*; X59 = S=C(Nc1ccc2nsnc2c1)*; NMeA = CN[C@@H](C)C(=O)O; Dab = NCC[C@H](N)C(=O)O; Dap = NC[C@H](N)C(=O)O; CO = O=C([*:1])[*:2]
Biological target: T1, PD-1/PD-L1 (Homo sapiens, UniProt Q9NZQ7)
T1 construct: TVMV protease site linker (C); made in house; host or cells: HEK293T cells
T1 sequence (Q9NZQ7 18-239): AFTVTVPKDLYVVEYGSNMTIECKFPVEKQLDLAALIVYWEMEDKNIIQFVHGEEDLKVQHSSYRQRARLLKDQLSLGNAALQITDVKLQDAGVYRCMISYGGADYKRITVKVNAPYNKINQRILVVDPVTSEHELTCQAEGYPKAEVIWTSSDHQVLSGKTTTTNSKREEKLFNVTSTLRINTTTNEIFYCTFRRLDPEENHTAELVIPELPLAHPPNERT
Test: PD-1/PD-L1 Homogenous Time-Resolved Fluorescence (HTRF) binding assay
Excerpt: The ability of the compounds of formula (I) to bind to PD-L1 was investigated using a PD-1/PD-L1 Homogenous Time-Resolved Fluorescence (HTRF) binding assay.
The interaction of PD-1 and PD-L1 can be assessed using soluble, purified preparations of the extracellular domains of the two proteins. The PD-1 and PD-L1 protein extracellular domains were expressed as fusion proteins with detection tags, for PD-1, the tag was the Fc portion of Immunoglobulin (PD-1-Ig) and for PD-L1 it was the 6 histidine motif (PD-L1-His). All binding studies were performed in an HTRF assay buffer consisting of dPBS supplemented with 0.1% […] bovine serum albumin and 0.05% (v/v) Tween-20. For the h/PD-L1-His binding assay, inhibitors were pre-incubated with PD-L1-His (10 nM final) for 15 m in 4 μl of assay buffer, followed by addition of PD-1-Ig (20 nM final) in 1 μl of assay buffer and further incubation for 15 m. HTRF detection was achieved using europium crypate-labeled anti-Ig (1 nM final) and allophycocyanin (APC) labeled anti-His (20 nM final). Antibodies were diluted in HTRF detection buffer and 5 μl was dispensed on top of the binding reaction. […] Additional binding assays were established between the human proteins PD-1-Ig/PD-L2-His (20 & 5 nM, respectively) and CD80-His/PD-L1-Ig (100 & 10 nM, respectively). […]

[1] = PD-L1-His 10 nM pre-incubated with inhibitor, PD-1-Ig 20 nM, read-out: HTRF IC50

Row | SMILES | IC50 [1] [nM] | IC50 [nM]
1 | CCCC[C@H]1C(=O)N(C)[C@@H](CCCC)C(=O)N[C@@H](CC(C)C)C(=O)N[C@H](C(=O)NCC(N)=O)CSCC(=O)N[C@@H](Cc2ccc(O)cc2)C(=O)N(C)[C@@H](C)C(=O)N[C@@H](CC(N)=O)C(=O)N2CCC[C@H]2C(=O)N[C@@H](CNC(=S)Nc2ccc(-n3cnc(Cl)c3)c(OC)c2)C(=O)N[C@@H](CC(C)C)C(=O)N2C[C@H](O)C[C@H]2C(=O)N[C@@H](Cc2c[nH]c3ccccc23)C(=O)N[C@@H](CCNC(=S)Nc2ccc(-n3cnc(Cl)c3)c(OC)c2)C(=O)N[C@@H](Cc2cn(CC(=O)O)c3ccccc23)C(=O)N1C [Example 1091] ({CH2CO}-Y[NMeA]NP[Dap](X23)L[Hyp]W[Dab](X23)[Trp(1-CH2COOH)][NMeNle][NMeNle]LCG-NH2; thioether N-14) | 4.3 | 
2 | CCCC[C@H]1C(=O)N(C)[C@@H](CCCC)C(=O)N[C@@H](CC(C)C)C(=O)N[C@H](C(=O)NCC(N)=O)CSCC(=O)N[C@@H](Cc2ccc(O)cc2)C(=O)N(C)[C@@H](C)C(=O)N[C@@H](CC(N)=O)C(=O)N2CCC[C@H]2C(=O)N[C@@H](CNC(=S)Nc2ccc3cc[nH]c3c2)C(=O)N[C@@H](CC(C)C)C(=O)N2C[C@H](O)C[C@H]2C(=O)N[C@@H](Cc2c[nH]c3ccccc23)C(=O)N[C@@H](CCNC(=S)Nc2ccc3cc[nH]c3c2)C(=O)N[C@@H](Cc2cn(CC(=O)O)c3ccccc23)C(=O)N1C [Example 3002] ({CH2CO}-Y[NMeA]NP[Dap](X7)L[Hyp]W[Dab](X7)[Trp(1-CH2COOH)][NMeNle][NMeNle]LCG-NH2; thioether N-14) | 4.3 | 
3 | CCCC[C@H]1C(=O)N(C)[C@@H](CCCC)C(=O)N[C@@H](CC(C)C)C(=O)N[C@H](C(=O)NCC(N)=O)CSCC(=O)N[C@@H](Cc2ccc(O)cc2)C(=O)N(C)[C@@H](C)C(=O)N[C@@H](CC(N)=O)C(=O)N2CCC[C@H]2C(=O)N[C@@H](CNC(=S)Nc2ccc(C(F)(F)F)cc2)C(=O)N[C@@H](CC(C)C)C(=O)N2C[C@H](O)C[C@H]2C(=O)N[C@@H](Cc2c[nH]c3ccccc23)C(=O)N[C@@H](CCN)C(=O)N[C@@H](Cc2cn(CC(=O)O)c3ccccc23)C(=O)N1C [Example 1034] ({CH2CO}-Y[NMeA]NP[Dap](X44)L[Hyp]W[Dab][Trp(1-CH2COOH)][NMeNle][NMeNle]LCG-NH2; thioether N-14) | 3.5 | 
4 | CCCC[C@H]1C(=O)N(C)[C@@H](CCCC)C(=O)N[C@@H](CC(C)C)C(=O)N[C@H](C(=O)NCC(N)=O)CSCC(=O)N[C@@H](Cc2ccc(O)cc2)C(=O)N(C)[C@@H](C)C(=O)N[C@@H](CC(N)=O)C(=O)N2CCC[C@H]2C(=O)N[C@@H](CNC(=S)Nc2ccc(-n3cccn3)cc2)C(=O)N[C@@H](CC(C)C)C(=O)N2C[C@H](O)C[C@H]2C(=O)N[C@@H](Cc2c[nH]c3ccccc23)C(=O)N[C@@H](CCNC(=S)Nc2ccc(-n3cccn3)cc2)C(=O)N[C@@H](Cc2cn(CC(=O)O)c3ccccc23)C(=O)N1C [Example 1094] ({CH2CO}-Y[NMeA]NP[Dap](X80)L[Hyp]W[Dab](X80)[Trp(1-CH2COOH)][NMeNle][NMeNle]LCG-NH2; thioether N-14) | 2.4 | 
5 | CCCC[C@H]1C(=O)N(C)[C@@H](CCCC)C(=O)N[C@@H](CC(C)C)C(=O)N[C@H](C(=O)NCC(N)=O)CSCC(=O)N[C@@H](Cc2ccc(O)cc2)C(=O)N(C)[C@@H](C)C(=O)N[C@@H](CC(N)=O)C(=O)N2CCC[C@H]2C(=O)N[C@@H](CNC(=O)Nc2ccc([N+](=O)[O-])cc2)C(=O)N[C@@H](CC(C)C)C(=O)N2C[C@H](O)C[C@H]2C(=O)N[C@@H](Cc2c[nH]c3ccccc23)C(=O)N[C@@H](CCNC(=O)Nc2ccc([N+](=O)[O-])cc2)C(=O)N[C@@H](Cc2cn(CC(=O)O)c3ccccc23)C(=O)N1C [Example 1130] ({CH2CO}-Y[NMeA]NP[Dap]([CO-pNA])L[Hyp]W[Dab]([CO-pNA])[Trp(1-CH2COOH)][NMeNle][NMeNle]LCG-NH2; thioether N-14) |  | 2
6 | CCCC[C@H]1C(=O)N(C)[C@@H](CCCC)C(=O)N[C@@H](CC(C)C)C(=O)N[C@H](C(=O)NCC(N)=O)CSCC(=O)N[C@@H](Cc2ccc(O)cc2)C(=O)N(C)[C@@H](C)C(=O)N[C@@H](CC(N)=O)C(=O)N2CCC[C@H]2C(=O)N[C@@H](CNC(=O)Nc2ccc([N+](=O)[O-])cc2C)C(=O)N[C@@H](CC(C)C)C(=O)N2C[C@H](O)C[C@H]2C(=O)N[C@@H](Cc2c[nH]c3ccccc23)C(=O)N[C@@H](CCNC(=O)Nc2ccc([N+](=O)[O-])cc2C)C(=O)N[C@@H](Cc2cn(CC(=O)O)c3ccccc23)C(=O)N1C [Example 1122] ({CH2CO}-Y[NMeA]NP[Dap]([CO-X27])L[Hyp]W[Dab]([CO-X27])[Trp(1-CH2COOH)][NMeNle][NMeNle]LCG-NH2; thioether N-14) |  | 14
7 | CCCC[C@H]1C(=O)N(C)[C@@H](CCCC)C(=O)N[C@@H](CC(C)C)C(=O)N[C@H](C(=O)NCC(N)=O)CSCC(=O)N[C@@H](Cc2ccc(O)cc2)C(=O)N(C)[C@@H](C)C(=O)N[C@@H](CC(N)=O)C(=O)N2CCC[C@H]2C(=O)N[C@@H](CNC(=S)Nc2ccc([N+](=O)[O-])cc2C)C(=O)N[C@@H](CC(C)C)C(=O)N2C[C@H](O)C[C@H]2C(=O)N[C@@H](Cc2c[nH]c3ccccc23)C(=O)N[C@@H](CCNC(=S)Nc2ccc([N+](=O)[O-])cc2C)C(=O)N[C@@H](Cc2cn(CC(=O)O)c3ccccc23)C(=O)N1C [Example 1125] ({CH2CO}-Y[NMeA]NP[Dap](X88)L[Hyp]W[Dab](X88)[Trp(1-CH2COOH)][NMeNle][NMeNle]LCG-NH2; thioether N-14) |  | 6.7

More lines, main results first:

Row | IC50 [1] [nM] | SMILES | IC50 [nM]
8 | 1.3 | CCCC[C@H]1C(=O)N(C)[C@@H](CCCC)C(=O)N[C@@H](CC(C)C)C(=O)N[C@H](C(=O)NCC(N)=O)CSCC(=O)N[C@@H](Cc2ccc(O)cc2)C(=O)N(C)[C@@H](C)C(=O)N[C@@H](CC(N)=O)C(=O)N2CCC[C@H]2C(=O)N[C@@H](CNC(=S)Nc2cc(F)c3occ(C)c3c2)C(=O)N[C@@H](CC(C)C)C(=O)N2C[C@H](O)C[C@H]2C(=O)N[C@@H](Cc2c[nH]c3ccccc23)C(=O)N[C@@H](CCN)C(=O)N[C@@H](Cc2cn(CC(=O)O)c3ccccc23)C(=O)N1C [Example 3054] ({CH2CO}-Y[NMeA]NP[Dap](X70)L[Hyp]W[Dab][Trp(1-CH2COOH)][NMeNle][NMeNle]LCG-NH2; thioether N-14) | 
9 | 3 | CCCC[C@H]1C(=O)N(C)[C@@H](CCCC)C(=O)N[C@@H](CC(C)C)C(=O)N[C@H](C(=O)NCC(N)=O)CSCC(=O)N[C@@H](Cc2ccc(O)cc2)C(=O)N(C)[C@@H](C)C(=O)N[C@@H](CC(N)=O)C(=O)N2CCC[C@H]2C(=O)N[C@@H](CNC(=S)Nc2ccc3nsnc3c2)C(=O)N[C@@H](CC(C)C)C(=O)N2C[C@H](O)C[C@H]2C(=O)N[C@@H](Cc2c[nH]c3ccccc23)C(=O)N[C@@H](CCN)C(=O)N[C@@H](Cc2cn(CC(=O)O)c3ccccc23)C(=O)N1C [Example 3030] ({CH2CO}-Y[NMeA]NP[Dap](X59)L[Hyp]W[Dab][Trp(1-CH2COOH)][NMeNle][NMeNle]LCG-NH2; thioether N-14) | 
10 | 1.6 | CCCC[C@H]1C(=O)N(C)[C@@H](CCCC)C(=O)N[C@@H](CC(C)C)C(=O)N[C@H](C(=O)NCC(N)=O)CSCC(=O)N[C@@H](Cc2ccc(O)cc2)C(=O)N(C)[C@@H](C)C(=O)N[C@@H](CC(N)=O)C(=O)N2CCC[C@H]2C(=O)N[C@@H](CNC(=S)Nc2cccc3c(C(N)=O)c[nH]c23)C(=O)N[C@@H](CC(C)C)C(=O)N2C[C@H](O)C[C@H]2C(=O)N[C@@H](Cc2c[nH]c3ccccc23)C(=O)N[C@@H](CCNC(=S)Nc2cccc3c(C(N)=O)c[nH]c23)C(=O)N[C@@H](Cc2cn(CC(=O)O)c3ccccc23)C(=O)N1C [Example 3023] ({CH2CO}-Y[NMeA]NP[Dap](X8)L[Hyp]W[Dab](X8)[Trp(1-CH2COOH)][NMeNle][NMeNle]LCG-NH2; thioether N-14) | 
11 | 5.9 | CCCC[C@H]1C(=O)N(C)[C@@H](CCCC)C(=O)N[C@@H](CC(C)C)C(=O)N[C@H](C(=O)NCC(N)=O)CSCC(=O)N[C@@H](Cc2ccc(O)cc2)C(=O)N(C)[C@@H](C)C(=O)N[C@@H](CC(N)=O)C(=O)N2CCC[C@H]2C(=O)N[C@@H](CNC(=S)Nc2ccc3nccnc3c2Br)C(=O)N[C@@H](CC(C)C)C(=O)N2C[C@H](O)C[C@H]2C(=O)N[C@@H](Cc2c[nH]c3ccccc23)C(=O)N[C@@H](CCNC(=S)Nc2ccc3nccnc3c2Br)C(=O)N[C@@H](Cc2cn(CC(=O)O)c3ccccc23)C(=O)N1C [Example 3070] ({CH2CO}-Y[NMeA]NP[Dap](X42)L[Hyp]W[Dab](X42)[Trp(1-CH2COOH)][NMeNle][NMeNle]LCG-NH2; thioether N-14) | 
12 | 2.3 | CCCC[C@H]1C(=O)N(C)[C@@H](CCCC)C(=O)N[C@@H](CC(C)C)C(=O)N[C@H](C(=O)NCC(N)=O)CSCC(=O)N[C@@H](Cc2ccc(O)cc2)C(=O)N(C)[C@@H](C)C(=O)N[C@@H](CC(N)=O)C(=O)N2CCC[C@H]2C(=O)N[C@@H](CNC(=O)Nc2ccc3sccc3c2)C(=O)N[C@@H](CC(C)C)C(=O)N2C[C@H](O)C[C@H]2C(=O)N[C@@H](Cc2c[nH]c3ccccc23)C(=O)N[C@@H](CCNC(=O)Nc2ccc3sccc3c2)C(=O)N[C@@H](Cc2cn(CC(=O)O)c3ccccc23)C(=O)N1C [Example 3003] ({CH2CO}-Y[NMeA]NP[Dap]([CO-NH(benzothiophen-5-yl)])L[Hyp]W[Dab]([CO-NH(benzothiophen-5-yl)])[Trp(1-CH2COOH)][NMeNle][NMeNle]LCG-NH2; thioether N-14) | 
